The text below walks through data of patent publication US20220008391A1, “NOVEL COMPOUNDS FOR CONTROLLING ARTHROPODS” (Bayer Animal Health GmbH, priority 2018, published 2022).

Broadly, the solubility is the concentration that dissolves in the medium under given conditions.

The test system of series [1] is Ctenocephalides felis. In words: Antiparasitic activity after administration to rats, fleas. In kind it is in vivo. Conditions: for flea efficacy on rats compared with the parent drug also injected subcutaneously: SC; for Efficacy SD42: sc, CF A, study day 42, 13.33-13.98 mg/kg prodrugs. The procedure: (§1) Measurement of the Antiparasitic Activity after Administration of a Prodrug to Rats Compounds were dissolved in the appropriate volume of glycerol formal (p.a.) just before application to the animals (dose volume was adjusted to 0.03 mL/kg bodyweight). 5 rats per group were either injected intraperitoneally or subcutaneously. Rats were infested with 30 Dermacentor variabilis nymphs on study days −2, 7, 14, 21, 28, 35 and 30 adult Ctenocephalides fleas on study days −1, 8, 15, 22, 29, 36. […] Percent efficacy was calculated as arithmetic mean parasite numbers as life attached tick numbers and live flea numbers of the respective study group in comparison to parasite counts on a placebo-treated control group. Infestation of groups with less than 75% efficacy on two consecutive counting occasions will terminated for the respective parasite.

In series [2] the test system is Dermacentor variabilis. In words: Antiparasitic activity after administration to rats, tick nymphs. In kind it is in vivo. Conditions: for tick efficacy on rats compared with the parent drug also injected subcutaneously: SC; for Efficacy SD42: sc, DV N, study day 42, 13.33-13.98 mg/kg prodrugs. The procedure: as §1
A short description of series [3]: Degradation of prodrugs and release of parent compound in dog plasma. The format is in vitro ADME. The procedure:
Measurement of Release of Parent Compound in Dog Plasma 1 mg of the test compound was dissolved in 0.5 mL acetonitrile/dimethylsulfoxide 9:1. For complete dissolution the HPLC vial was shaken and treated with ultrasound. 20 μl of this solution were added to 1 mL of dog plasma (Beagle) under vortexing at a temperature of 37° C. Aliquots (100 μL each) were taken at 0.17, 0.5, 1, 1.5, 2 and 4 hours. Each aliquot was transferred to a vial containing 300 μL of acetonitrile/citric acid buffer pH 3 80:20. These solutions were centrifuged at 5000 rpm for 10 minutes. The supernatant was analysed by HPLC (Method 8) to determine the amount of the test compound. In addition, the reaction mixture was analysed by method 9 (HPLC-MS) at the final timepoint. Both decrease of the prodrug concentration and increase of parent compound concentration were monitored. All data is given as percent area of the prodrug at t0.

A short description of series [4]: Measurement of solubility in buffer at pH 6.5. The format is physicochemical. Conditions: aqueous buffer, kinetic from dmso stock; PBS buffer pH 6.5, shaken 24h at rt, LC-MSMS; read-out: Solubility of example compounds at pH 6.5. The procedure:
Measurement of Solubility in Buffer at pH 6.5 2-4 mg of the test compound are dissolved in DMSO to reach a concentration of 50 g/L (solution A). To 10 μl of this solution 960 μl PBS buffer pH 6.5 are added (final concentration: 515 μg/1); the mixture is shaken for 24h at rt in a 96 well plate. An aliquot is centrifuged at 42000 rpm für 30 min. The supernatant is diluted with acetonitrile/water (8:2) 1:10 and 1:1000 resp. This diluted samples are analyzed by LC-MSMS. Calibration: 10 μl of solution A are diluted with 823 μl DMSO (final concentration: 600 μg/ml), which is further diluted with acetonitrile/water 8:2 by a factor of 100 (provides solution B). The calibration curve is obtained from solution B by further diluting with acetonitrile/water 8:2 with target concentrations of 1.2-12-60-600 ng/ml and injecting these four solutions for MS measurement. PBS-Puffer: 6.18 g sodium chloride and 3.96 g sodium dihydrogen phosphate are dissolved in 1 L aqua dist., the pH is adjusted to 6.5 with 1N sodium hydroxide. The following conditions were used for quantification: Autosampler without auto inject ahead setting, column: Waters OASIS HLB, 2,1×20 mm, 25μ, column temperature: 30° C., flow rate: 2.5 mL/min, injected volume: 2 μl, Splitter (before MS) 1:20.

For series [5], the system named is Dermacentor variabilis. Put plainly: Antiparasitic activity after administration to dogs, D. variabilis ticks. In kind it is in vivo. Conditions: sc. The protocol:
Measurement of the Antiparasitic Activity after Administration of a Prodrug to Dogs
Compounds were dissolved in the appropriate volume of glycerol formal (p.a.) just before application to the animals (dose volume was adjusted to 0.1 ml/kg bodyweight). Dogs were injected intravenously respective subcutaneously (see table 8 for details).
Dogs were infested with ectoparasites according to table on study 1 day prior to counting for fleas, 2 days prior to counting for RS, IR, DV ticks and 3 days prior to counting for AA ticks. For this purpose, dogs were placed in an individually labeled box with grid windows. The ticks were released onto the back of the dogs and were allowed to disperse and move into the hair without disturbance. The dog remained in the box for approximately 120 minutes with the lid closed and the light switched off in the room. For flea infestations, flea containers were opened in the animal's cage and fleas were applied on the dog's back between the shoulders.
Tick counts including removal of I. ricinus, R. sanguineus and D. variabilis were conducted 48(±4) hours after the infestation. Tick counts including removal of A. americanum were conducted 72(±4) hours after the infestation. Flea counts were conducted 24(±4) hours after the infestation.
On each parasite assessment day percent efficacy was calculated as arithmetic mean parasite numbers as life attached and live free tick numbers and live flea numbers of the respective study group in comparison to parasite counts on a placebo non-treated control group.

Values after ≈ are worked out from the molar mass of the structure shown.

In the case of `N#CC1(N(COC(=O)OCCOC(=O)/C=C/C(=O)O)C(=O)c2cc(-c3cnn(-c4c(Cl)cc(C(F)(C(F)(F)F)C(F)(F)F)cc4OC(F)(F)F)c3)ccc2Cl)CC1` [Example 1, (11E)-1-(2-Chloro-5-{1-[2-chloro-4-(1,1,1,2,3,3,3-heptafluoropropan-2-yl)-6-(trifluoromethoxy)phenyl]-1H-pyrazol-4-yl}phenyl)-2-(1-cyanocyclopropyl)-1,5,10-trioxo-4,6,9-trioxa-2-azatridec-11-en-13-oic Acid], in series [1], the “flea efficacy on rats compared with the parent drug also injected subcutaneously” value was “superior” and the “Efficacy SD42” value came out at 79%. Moreover, in series [2], the “tick efficacy on rats compared with the parent drug also injected subcutaneously” value is reported as “superior” and the “Efficacy SD42” value amounted to 81%. In addition, the “% Parent Drug 4 h” value in series [3] (Beagle, dog, 4 h, 39.2 µg/mL) turned out to be 32%. Moreover, in series [3] (dog plasma (Beagle), 37° C., 0.17 h, percent area of prodrug at t0), the recovery at 0.17 h, 39 µg/mL is 100%. In series [3] (dog plasma (Beagle), 37° C., 0.5 h), the recovery at 0.5 h, 39 µg/mL came to 100%. The recovery at 1 h, 39 µg/mL in series [3] (dog plasma (Beagle), 37° C., 1 h) came to 100%. Moreover, in series [3] (dog plasma (Beagle), 37° C., 1.5 h), the recovery at 1.5 h, 39 µg/mL came to 88%. Also, in series [3] (dog plasma (Beagle), 37° C., 2 h), the recovery at 2 h, 39 µg/mL turned out to be 82%. In addition, in series [3] (dog plasma (Beagle), 37° C., 4 h), the recovery at 4 h, 39 µg/mL is 54%. Besides, in series [4], the solubility at 24 h is 5 µg/mL (≈ 5.78 µM). For the same molecule, the “duration of efficacy against D. variabilis as least sensitive species” value in series [5] is reported as “five”. Also, the “% Efficacy in study month 4” value in series [5] (13.33 mg/kg (=10 parent), DV, study 4, month 4) was determined as 96%. Moreover, in series [5] (13.33 mg/kg (=10 parent), DV, study 4, month 5), the “% Efficacy in study month 5” value was found to be 100%. Besides, the “% Efficacy in study month 6” value in series [5] (13.33 mg/kg (=10 parent), DV, study 4, month 6) was found to be 77%.
Regarding `CC(C)(COC(=O)/C=C/C(=O)O)COC(=O)OCN(C(=O)c1cc(-c2cnn(-c3c(Cl)cc(C(F)(C(F)(F)F)C(F)(F)F)cc3OC(F)(F)F)c2)ccc1Cl)C1(C#N)CC1` [Example 4, (12E)-1-(2-chloro-5-{1-[2-chloro-4-(1,1,1,2,3,3,3-heptafluoropropan-2-yl)-6-(trifluoromethoxy)phenyl]-1H-pyrazol-4-yl}phenyl)-2-(1-cyanocyclopropyl)-8,8-dimethyl-1,5,11-trioxo-4,6,10-trioxa-2-azatetradec-12-en-14-oic Acid], the “flea efficacy on rats compared with the parent drug also injected subcutaneously” value in series [1] is recorded as “superior”. Further, the “tick efficacy on rats compared with the parent drug also injected subcutaneously” value in series [2] was “superior”. For the same molecule, the solubility at 24 h in series [4] stood at 2 µg/mL (≈ 2.2 µM).
With `N#CC1(N(COC(=O)OCCCOC(=O)/C=C/C(=O)O)C(=O)c2cc(-c3cnn(-c4c(Cl)cc(C(F)(C(F)(F)F)C(F)(F)F)cc4OC(F)(F)F)c3)ccc2Cl)CC1` [Example 2, (12E)-1-(2-Chloro-5-{1-[2-chloro-4-(1,1,1,2,3,3,3-heptafluoropropan-2-yl)-6-(trifluoromethoxy)phenyl]-1H-pyrazol-4-yl}phenyl)-2-(1-cyanocyclopropyl)-1,5,11-trioxo-4,6,10-trioxa-2-azatetradec-12-en-14-oic Acid], the “Efficacy SD42” value in series [1] came out at 69%; in series [2] it was 82%. Moreover, the solubility at 24 h in series [4] was determined as 4 µg/mL (≈ 4.55 µM).
Take `Cn1nc(C(F)(F)C(F)(F)F)c(C(F)(F)F)c1-n1cc(-c2ccc(Cl)c(C(=O)N(COC(=O)OCC3(C(=O)O)CC3)C3(C#N)CC3)c2)cn1` [Example 31, 1-{[({[{2-Chloro-5-[2′-methyl-5′-(pentafluoroethyl)-4′-(trifluoromethyl)-2′H-[1,3′-bipyrazol]-4-yl]benzoyl}(1-cyanocyclopropyl)amino]methoxy}carbonyl)oxy]methyl}cyclopropane-1-carboxylic Acid]: in series [4], the solubility at 24 h came to 168 µg/mL (≈ 232 µM).
Same read-out and setting: with `N#CC1(N(COC(=O)O[C@H]2CCC[C@H]2OC(=O)CCC(=O)O)C(=O)c2cc(-c3cnn(-c4c(Cl)cc(C(F)(C(F)(F)F)C(F)(F)F)cc4OC(F)(F)F)c3)ccc2Cl)CC1` (relative stereo) [Example 7, 4-({(rel 1R,2S)-2-[({[(2-chloro-5-{1-[2-chloro-4-(1,1,1,2,3,3,3-heptafluoropropan-2-yl)-6-(trifluoromethoxy)phenyl]-1H-pyrazol-4-yl}benzoyl)(1-cyanocyclopropyl)amino]methoxy}carbonyl)oxy]cyclopentyl}oxy)-4-oxobutanoic Acid] the figure was 3 µg/mL (≈ 3.31 µM).
Still for that read-out and setting: for `N#CC1(N(COC(=O)OCCOC(=O)CCC(=O)O)C(=O)c2cc(-c3cnn(-c4c(Cl)cc(C(F)(C(F)(F)F)C(F)(F)F)cc4OC(F)(F)F)c3)ccc2Cl)CC1` [Example 3, 1-(2-Chloro-5-{1-[2-chloro-4-(1,1,1,2,3,3,3-heptafluoropropan-2-yl)-6-(trifluoromethoxy)phenyl]-1H-pyrazol-4-yl}phenyl)-2-(1-cyanocyclopropyl)-1,5,10-trioxo-4,6,9-trioxa-2-azatridecan-13-oic Acid] the value was 6 µg/mL (≈ 6.92 µM); for `N#CC1(N(COC(=O)OCCC(=O)O)C(=O)c2cc(-c3cnn(-c4c(Cl)cc(C(F)(C(F)(F)F)C(F)(F)F)cc4OC(F)(F)F)c3)ccc2Cl)CC1` [Example 36, 3-[({[(2-Chloro-5-{1-[2-chloro-4-(1,1,1,2,3,3,3-heptafluoropropan-2-yl)-6-(trifluoromethoxy)phenyl]-1H-pyrazol-4-yl}benzoyl)(1-cyanocyclopropyl)amino]methoxy}carbonyl)oxy]propanoic Acid], 16 µg/mL (≈ 20.1 µM).
With `N#CC1(N(COC(=O)OCCOC(=O)C2(C(=O)O)CC2)C(=O)c2cc(-c3cnn(-c4c(Cl)cc(C(F)(C(F)(F)F)C(F)(F)F)cc4OC(F)(F)F)c3)ccc2Cl)CC1` [Example 13, 1-[10-(2-Chloro-5-{1-[2-chloro-4-(1,1,1,2,3,3,3-heptafluoropropan-2-yl)-6-(trifluoromethoxy)phenyl]-1H-pyrazol-4-yl}phenyl)-9-(1-cyanocyclopropyl)-6,10-dioxo 2,5,7-trioxa-9-azadecanan-1-oyl]cyclopropane-1-carboxylic Acid], the solubility at 24 h in series [4] was 7 µg/mL (≈ 7.96 µM).
On the same count and under the same terms, with `Cn1nc(C(F)(F)C(F)(F)F)c(C(F)(F)F)c1-n1cc(-c2ccc(Cl)c(C(=O)N(COC(=O)OCCCOC(=O)CCC(=O)O)C3(C#N)CC3)c2)cn1` [Example 26, 1-{2-Chloro-5-[2′-methyl-5′-(pentafluoroethyl)-4′-(trifluoromethyl)-2′H-[1,3′-bipyrazol]-4-yl]phenyl}-2-(1-cyanocyclopropyl)-1,5,11-trioxo-4,6,10-trioxa-2-azatetradecan-14-oic Acid] the figure was 96 µg/mL (≈ 122 µM).
